US20250042941A1, “PEPTIDE HAVING PHYSIOLOGICAL ACTIVITY AND USE THEREOF” (CAREGEN CO., LTD., priority 2021, published 2025)

Assays:
human AD-MSC cells = assay: ECM gene expression in mesenchymal stem cells (RT-PCR); type: cell-based; conditions: peptide 50 and 100 μg/ml, days 3, 7, 11, FIGS. 7A to 7C
Procedure: Adipose-derived mesenchymal stem cells were treated with the peptide containing the amino acid sequence of SEQ ID NO: 1, and then it was confirmed whether there was an increase in expression of cartilage oligomeric matrix protein (COMP), collagen type 11A (COL 11A), PCP, and ACAN (aggrecan) genes associated with the ECM production.
After removing the medium on days 3, 7, and 11, cells were harvested and RNA was isolated. After synthesizing cDNA using a cDNA synthesis kit (Intron, Korea), PCR was performed for COMP, COL 11A, PCP, ACAN, and GAPDH genes using PCR pre-mix (Intron, Korea).

COX2 protein = COX2 protein in macrophages induced by inflammation with TNFα (Western blot); type: cell-based, mouse; conditions: RAW264.7, peptide 100 and 150 μg/ml 1 hour, then 20 nM TNF-α 24 hours, FIG. 9
Procedure: In addition to the results of Experimental Example 7, in order to further confirm the anti-inflammatory effect of the treatment with the peptide containing the amino acid sequence of SEQ ID NO: 1 of the present invention, mouse RAW264. 7 macrophage cell line was treated with TNFα to induce inflammation, and the expression level of COX2 protein, which is an inflammation-inducing marker, was confirmed.
To this end, mouse RAW264.7 cell line was distributed in a 6-well plate at a density of 2×10^5 cells/well and cultured in α-MEM medium containing 10% FBS for 24 hours. The medium was replaced with serum-free α-MEM medium (1% penicillin) and then fasted for 6 hours. […] After 1 hour, the cells were treated with 20 nM TNF-α and incubated for 24 hours. Thereafter, the cells were harvested, a cell lysate was prepared, and then Western blot was performed using antibodies against the COX2 protein (Cell Signaling Technology, USA).

[1] = tested on: human C28/12 chondrocyte cell line; assay: ECM gene expression in chondrocytes (RT-PCR); type: cell-based; conditions: peptide 50 and 100 μg/ml, day 9, mRNA, FIG. 3
Procedure: Human-derived chondrocytes were treated with the peptide containing the amino acid sequence of SEQ ID NO: 1, and then it was confirmed whether there was an increase in mRNA expression of collagen type II (COL2A1), aggrecan (ACAN), and proteoglycan core protein (PCP), which are ECM components, and GAPDH gene, which is a control.
To this end, human C28/12 chondrocyte cell line was distributed in a 6-well plate at a density of 8.9×10^4 cells/well and cultured in DMEM medium (cat. 11995-065, Gibco) for 24 hours. […] After removing the medium on day 9, cells were harvested and RNA was isolated. After synthesizing cDNA using a cDNA synthesis kit (Intron, Korea), PCR was performed for collagen type II, ACAN, PCP, and GAPDH genes using PCR pre-mix (Intron, Korea).

[2] = tested on: human adipose-derived mesenchymal stem cells (AD-MSCs); assay: Differentiation of mesenchymal stem cells into chondrocytes and ECM production, alcian blue staining; type: cell-based; conditions: peptide 30, 50, 100, 150 μg/ml, day 15, FIG. 5
Procedure: Adipose-derived mesenchymal stem cells were treated with the peptide containing the amino acid sequence of SEQ ID NO: 1, and then the effect on chondrogenic differentiation of the stem cells and ECM production was confirmed.
(§1) After removing the medium on day 15, 60 μl of 3.7% formalin was added to the 96-well plate to be stained and fixed for 1 minute. After removing the 3.7% formalin, 70 μl of an alcian blue staining solution (50 ml of 3% acetic acid+0.5 g of 1% Asian blue 8GX, pH 2.5) was added, and incubation was performed at 37° C. for 24 hours. Thereafter, the staining solution was removed, washing with triple distilled water and drying were performed, and then observation was performed with a microscope.

mouse RAW264.7 cell line [3] = assay: Cytotoxicity / cell proliferation, CCK-8 assay; type: cell-based; conditions: peptide 10, 30, 50, 100, 150 μg/ml, 3 days
Procedure: The effect of the peptide of the present invention on cell proliferation was confirmed using CCK-8 assay. CCK-8 reagent is reduced by cellular dehydrogenase to produce a colored product, and the proliferation of cells may be confirmed through a difference in absorbance using this.
After removing the medium, CCK-8 solution (Dojindo, CCK-8 kit) was diluted 10 times in the culture medium and treated at 100 μl each. During incubation at 37° C., absorbance at a wavelength of 450 nm was measured using a microplate reader at 30-minute intervals.

[4] = tested on: mouse RAW264.7 macrophage cell line; assay: Actin ring formation in osteoclasts induced by RANKL (immunofluorescence); type: cell-based; conditions: peptide 50 and 100 μg/ml with RANKL, 4 days, FIG. 12
Procedure: In addition to the results of Experimental Examples 9 and 10, in order to further confirm the effect of inhibiting osteoclast differentiation according to the treatment with the peptide containing the amino acid sequence of SEQ ID NO: 1 of the present invention, mouse RAW264. […] After removing the medium, the cells were washed three times with cooled PBS and fixed with 4% paraformaldehyde for 30 minutes. The cells were washed three times with cooled PBS for 5 minutes, and then the cells were permeabilized with 0.3% Triton X-100 in PBS for 30 minutes. The cells were washed three times with cooled PBS for 5 minutes, and the cells were blocked with filtered 3% BSA in PBS for 1 hour with stirring. Incubation was performed with primary antibodies (Rhodamin (Red) [Invitrogen™]) diluted to 1:100 with a blocking medium with stirring for 2 hours. The cells were blocked from light and washed three times with PBS for 15 minutes with stirring, DAPI mounting medium (VECTASHIELD® MOUNTING MEDIUM with DAPI) was added, and then each well was covered with a cover slip and observed with a microscope.

[5] = tested on: human C28/12 chondrocyte cell line; assay: ECM production in three-dimensional culture of chondrocytes (alginate beads, alcian blue or toluidine blue); type: cell-based; conditions: peptide 100 and 150 μg/ml, day 9, FIG. 4
Procedure: Human-derived chondrocytes were treated with the peptide containing the amino acid sequence of SEQ ID NO: 1 in three-dimensional culture, and then it was confirmed whether there was an increase in the formation of glycosaminoglycan, which is an ECM component.
To this end, 3×10^6 cells of human C28/12 chondrocyte cell line were suspended in 1 ml of an alginate solution (1.25% alginate, 20 mM HEPES, 150 mM Nacl, pH 7.4), and the alginate solution containing the cells were added dropwise to a polymerization solution (100 mM CaCl2), 10 mM HEPES, pH 7.4), thereby preparing beads. The prepared beads were washed twice with DPBS, and then the beads were distributed in a conical tube containing DMEM medium (5% FBS). […] After removing the medium on day 9, 3.7% formaldehyde was added and fixed for 6 hours. Dehydration was performed using a tissue processor (EtOH 70%, 80%, 90%, 100% I, II, xylene I, II in this order for 30 minutes each), and a paraffin block was prepared by embedding. The paraffin block was sectioned on a glass slide to a thickness of […] and then completely dried for 24 hours or longer. The sections were hydrated (Xylene I, II, EtOH 100% I, II, 90%, 80%, 70% in this order for 3 minutes each) and washed three times by being immersed in running water for 10 seconds. […]

SOX9 protein = assay: Expression of ECM regulator SOX9 in mesenchymal stem cells (Western blot); type: cell-based, human; conditions: AD-MSC, peptide 50 and 100 μg/ml, days 3, 7, 14, FIGS. 6A to 6C
Procedure: Adipose-derived mesenchymal stem cells were treated with the peptide containing the amino acid sequence of SEQ ID NO: 1, and then it was confirmed whether there was an increase in expression of SOX9 protein, which is an ECM regulator.
At this time, as a positive control (CM), a solution containing dexamethasone (100 nM)+ascorbic acid (50 μM)+proline (40 μM)+TGFβ1 (10 ng/ml)+1X ITS was used. After removing the medium on days 3, 7, and 14, cells were harvested, a cell lysate was prepared, and Western blot was performed using antibodies (Millipore, USA) against the SOX9 and SOX5 proteins.

NFATc1 protein = NFATc1 protein in RANKL-induced osteoclast differentiation (Western blot); type: cell-based, mouse; conditions: RAW264.7, peptide 50 and 100 μg/ml with RANKL, day 1 of induction, FIG. 11
Procedure: Mouse RAW264. […] After removing the medium on day 1 of induction, cells were harvested, a cell lysate was prepared, and Western blot was performed using antibodies (Millipore, USA) against NFATc1 protein.

TRAP = conditions: RAW264.7; peptide 10, 30, 50, 100, 150 μg/ml with RANKL; 4 days; absorbance 405 nm; concentration-dependent; FIG. 10C
Procedure: Mouse RAW264.7 cell line was distributed in a 96-well plate at a density of 1.7×10^3 cells/well and cultured in DMEM medium for 24 hours. After 24 hours, the peptide of SEQ ID NO: 1 was treated at concentrations of 10, 30, 50, 100, and 150 μg/ml together with RANKL, and then differentiation of osteoclasts was induced for 4 days. The cells were treated with 100 μl of a TRAP activity solution (TRAP buffer (0.1 sodium citrate+15 ml of 50 μM sodium tartrate [pH 5.0])+4-nitrophenly phosphate disodium salt hexahydrate, sigma, 1 tablet mix), incubated at 37° C. for 1 hour, and treated with 10 μl of 2 N NaOH. Absorbance at a wavelength of 405 nm was measured using a plate reader.

mouse RAW264.7 cell line [6] = assay: Osteoclast differentiation induced by RANKL, TRAP staining; type: cell-based; conditions: peptide 10 to 150 μg/ml with RANKL, 4 days, FIG. 10A
Procedure: After removing the medium, the cells were fixed for 30 seconds and washed twice with double distilled water. Staining was performed with 100 μl of a TRAP staining solution (acid phosphatase kit, Sigma aldrich) at 37° C. for 30 minutes. Thereafter, the staining solution was removed, washing with double distilled water three times and drying were performed, and then observation was performed with a microscope.

[7] = tested on: mouse RAW264.7 macrophage cell line; assay: Inflammatory cytokine mRNA in macrophages induced by inflammation with TNFα (RT-PCR); type: cell-based; conditions: peptide 100 and 150 μg/ml 1 hour, then 20 nM TNF-α 24 hours, FIG. 8
Procedure: In addition to the cartilage regenerative activity confirmed in Experimental Examples 1 to 6, in order to confirm the anti-inflammatory effect according to the treatment with the peptide containing the amino acid sequence of SEQ ID NO: 1 of the present invention, mouse RAW264.7 macrophage cell line was treated with TNF to induce inflammation, and the expression levels of TNFα and IL-18, which are inflammatory cytokines, and Cox2 gene, which is an inflammation-inducing marker, were confirmed. The cytokine TNFα was treated to induce inflammation. Since TNFα corresponds to a signal transduction protein related to an inflammatory response, IL-18 corresponds to a cytokine that promotes an inflammatory response, and Cox2 is an inflammation-related protein, a degree of the inflammatory response may be confirmed by measuring the expression levels of TNFα, Cox2, and […] genes. To this end, mouse RAW264.7 cell line was distributed in a 6-well plate at a density of 2×10^5 cells/well and cultured in α-MEM medium containing 10% FBS for 24 hours. The medium was replaced with serum-free α-MEM medium (1% penicillin) and then fasted for 6 hours. […] After 1 hour, the cells were treated with 20 nM TNF-α and incubated for 24 hours. Thereafter, the cells were harvested and RNA was isolated. […]

[8] = tested on: human C28/12 chondrocyte cell line; assay: ECM production in chondrocytes, alcian blue staining; type: cell-based; conditions: peptide 30, 50, 100, 150 μg/ml, day 6, FIG. 2
Procedure: In order to confirm the cartilage regeneration effect of treatment with the peptide of the present invention containing the amino acid sequence of SEQ ID NO: 1, human-derived chondrocytes were treated with the peptide of SEQ ID NO: 1, and then it was confirmed whether there was an increase in formation of glycosaminoglycan, which is an ECM component.
as §1, with “6,” for “15,”

Sequence: ACDWGLWWLC (peptide having cartilage regeneration activity) [SEQ ID NO: 1]
- expression of ACAN gene (human AD-MSC cells): promoted the expression
- expression of COL 11A gene (human AD-MSC cells): promoted the expression
- expression of COMP gene (human AD-MSC cells): promoted the expression
- expression of PCP gene (human AD-MSC cells): promoted the expression
- increase in inflammatory proteins (COX2 protein) (COX2 protein): inhibited the increase in inflammatory proteins
- expression of ACAN (aggrecan) gene [1]: promoted the expression
- expression of PCP (proteoglycan core protein) gene [1]: promoted the expression
- expression of collagen type II (COL2A1) gene [1]: promoted the expression
- chondrogenic differentiation of adipose-derived mesenchymal stem cells [2]: promoted the chondrogenic differentiation
- production of glycosaminoglycan (ECM component) in adipose-derived mesenchymal stem cells [2]: promoted
- toxicity to mouse macrophages (mouse RAW264.7 cell line [3]; CCK-8, FIG. 10B): not toxic
- CCK-8 absorbance at 450 nm (cell proliferation) versus untreated (mouse RAW264.7 cell line [3]; FIG. 10B): the absorbance was higher
- formation of actin rings [4]: inhibited the formation of actin rings
- formation of glycosaminoglycan (ECM component) in three-dimensional culture of chondrocytes [5]: promoted the formation of glycosaminoglycan
- production of SOX9 protein (ECM regulator) (SOX9 protein): increased production of SOX9 protein
- production of NFATc1 protein (NFATc1 protein): inhibited the production of NFATc1 protein
- activity of TRAP (marker of osteoclasts) (TRAP): inhibited the activity of TRAP
- differentiation into osteoclasts induced by RANKL (mouse RAW264.7 cell line [6]): inhibited the differentiation into osteoclasts
- expression of inflammatory cytokine genes (TNFα, IL-1β, Cox2 mRNA) [7]: inhibited the expression of inflammatory cytokine genes
- ECM production (glycosaminoglycan formation) in chondrocytes [8]: promoted ECM production
